{"source": "ChEMBL document CHEMBL4431301", "about": "“The Medicinal Chemistry of Dengue Virus” (J Med Chem, 2016)", "key": {"dengue virus type 2 [1]": {"tested_on": "dengue virus type 2", "experiment": "Antiviral activity against Dengue virus 2 NGC infected in human HuH7 cells assessed as reduction in viral titer after 24 hrs", "type": "functional", "conditions": "Huh-7, 24 h"}, "dengue virus type 2 [2]": {"tested_on": "dengue virus type 2", "experiment": "Antiviral activity against Dengue virus 2 NGC infected in BHK21 cells after 48 hrs by plaque reduction assay", "type": "functional, organism-based", "conditions": "BHK-21, 48 h"}, "dengue virus type 1": {"tested_on": "dengue virus type 1", "experiment": "Antiviral activity against Dengue virus 1 Hawaii infected in african green monkey Vero cells assessed as inhibition of viral yield after 48 hrs", "type": "functional, organism-based"}, "Junin virus": {"tested_on": "Junin virus", "experiment": "Antiviral activity against Junin virus IV4454 infected in african green monkey Vero cells assessed as inhibition of viral yield after 48 hrs", "type": "functional, organism-based", "conditions": "Mammarenavirus juninense"}, "dengue virus type 2 [3]": {"tested_on": "dengue virus type 2", "experiment": "Antiviral activity against Dengue virus 2 NGC infected in african green monkey Vero cells assessed as inhibition of viral yield after 48 hrs", "type": "functional, organism-based"}, "dengue virus type 3 [4]": {"tested_on": "dengue virus type 3", "experiment": "Antiviral activity against Dengue virus 3 H87 infected in african green monkey Vero cells assessed as inhibition of viral yield after 48 hrs", "type": "functional, organism-based"}, "dengue virus type 2 [5]": {"tested_on": "dengue virus type 2", "experiment": "Antiviral activity against Dengue virus 2 NGC infected in human A549 cells assessed as reduction in virus replication after 48 hrs by renilla luciferase reporter gene assay", "type": "functional, organism-based", "conditions": "A549, 48 h"}, "dengue virus type 4": {"tested_on": "dengue virus type 4", "experiment": "Antiviral activity against Dengue virus 4 8124 infected in african green monkey Vero cells assessed as inhibition of viral yield after 48 hrs", "type": "functional, organism-based", "conditions": "Dengue virus, 8124, Vero"}, "[6]": {"experiment": "Cytotoxicity against human HuH7 cells assessed as cell viability after 48 hrs by CellTiter Glo assay", "type": "cell-based, Huh-7"}, "dengue virus type 2 [7]": {"tested_on": "dengue virus type 2", "experiment": "Antiviral activity against Dengue virus 2 NGC infected in human HuH7 cells assessed as reduction in virus replication after 48 hrs by renilla luciferase reporter gene assay", "type": "functional, organism-based", "conditions": "Huh-7, 48 h"}, "Genome polyprotein": {"biological_target": "Genome polyprotein (dengue virus type 2, UniProt P29990)", "sequence (P29990 1346-1475 limits assumed)": "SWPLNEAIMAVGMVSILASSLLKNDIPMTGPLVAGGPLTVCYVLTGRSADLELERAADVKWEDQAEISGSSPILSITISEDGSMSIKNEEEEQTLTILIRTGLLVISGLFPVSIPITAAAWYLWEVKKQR", "sequence (P29990 1476-2093 limits assumed)": "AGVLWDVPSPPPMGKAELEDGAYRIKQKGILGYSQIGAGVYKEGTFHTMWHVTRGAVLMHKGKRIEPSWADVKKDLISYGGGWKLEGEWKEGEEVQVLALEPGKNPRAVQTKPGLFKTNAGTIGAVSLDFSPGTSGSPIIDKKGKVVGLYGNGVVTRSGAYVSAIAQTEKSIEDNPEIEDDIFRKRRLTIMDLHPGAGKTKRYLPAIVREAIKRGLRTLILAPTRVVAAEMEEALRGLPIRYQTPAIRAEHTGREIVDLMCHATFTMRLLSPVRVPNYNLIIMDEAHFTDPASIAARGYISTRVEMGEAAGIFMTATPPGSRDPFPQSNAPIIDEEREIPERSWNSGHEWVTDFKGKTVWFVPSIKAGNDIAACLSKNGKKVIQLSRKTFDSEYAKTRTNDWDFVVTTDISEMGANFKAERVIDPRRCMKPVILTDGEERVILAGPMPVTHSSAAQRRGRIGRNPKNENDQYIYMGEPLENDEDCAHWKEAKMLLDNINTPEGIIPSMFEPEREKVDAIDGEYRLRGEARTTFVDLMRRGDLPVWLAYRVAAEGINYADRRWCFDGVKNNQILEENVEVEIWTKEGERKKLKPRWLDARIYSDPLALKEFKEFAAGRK", "experiment": "Inhibition of Dengue virus 2 NS2B-NS3 protease using Abz-Nle-Lys-Arg-Arg-Ser-3-(NO2)Tyr as substrate preincubated for 15 mins followed by addition of substrate measured after 15 mins by fluorescence assay"}, "dengue virus type 2 [8]": {"tested_on": "dengue virus type 2", "experiment": "Antiviral activity against Dengue virus 2 assessed as inhibition of viral replication", "type": "functional, organism-based"}, "[9]": {"experiment": "Binding affinity to His-tagged Dengue virus 3 methyltransferase expressed in Escherichia coli Rosetta 2(DE3) by VP-ITC isothermal titration calorimetry", "parameters": "species or system dengue virus type 3"}, "[10]": {"experiment": "Cytotoxicity against BHK21 cells after 1 hr by alamar blue assay", "type": "cell-based, Mesocricetus auratus, BHK-21", "conditions": "hamster"}, "dengue virus type 2 [11]": {"tested_on": "dengue virus type 2", "experiment": "Antiviral activity against Dengue virus 2 NGC infected in BHK21 cells after 24 hrs by plaque reduction assay", "type": "functional", "conditions": "BHK-21, 24 h"}, "[12]": {"experiment": "Inhibition of Dengue virus guanine N-7 methyltransferase using RNA substrate after 20 mins in presence of [methyl-3H]-AdoMet by microbeta counting analysis"}, "dengue virus type 3 [13]": {"tested_on": "dengue virus type 3", "experiment": "Potency index, ratio of S-adenosyl-L-methionine Kd to sinefungin Kd for His-tagged Dengue virus 3 methyltransferase expressed in Escherichia coli Rosetta 2(DE3)"}, "Nonstructural protein 5": {"biological_target": "Nonstructural protein 5 (Dengue virus, UniProt V5TFZ2)", "sequence (V5TFZ2 whole entry)": "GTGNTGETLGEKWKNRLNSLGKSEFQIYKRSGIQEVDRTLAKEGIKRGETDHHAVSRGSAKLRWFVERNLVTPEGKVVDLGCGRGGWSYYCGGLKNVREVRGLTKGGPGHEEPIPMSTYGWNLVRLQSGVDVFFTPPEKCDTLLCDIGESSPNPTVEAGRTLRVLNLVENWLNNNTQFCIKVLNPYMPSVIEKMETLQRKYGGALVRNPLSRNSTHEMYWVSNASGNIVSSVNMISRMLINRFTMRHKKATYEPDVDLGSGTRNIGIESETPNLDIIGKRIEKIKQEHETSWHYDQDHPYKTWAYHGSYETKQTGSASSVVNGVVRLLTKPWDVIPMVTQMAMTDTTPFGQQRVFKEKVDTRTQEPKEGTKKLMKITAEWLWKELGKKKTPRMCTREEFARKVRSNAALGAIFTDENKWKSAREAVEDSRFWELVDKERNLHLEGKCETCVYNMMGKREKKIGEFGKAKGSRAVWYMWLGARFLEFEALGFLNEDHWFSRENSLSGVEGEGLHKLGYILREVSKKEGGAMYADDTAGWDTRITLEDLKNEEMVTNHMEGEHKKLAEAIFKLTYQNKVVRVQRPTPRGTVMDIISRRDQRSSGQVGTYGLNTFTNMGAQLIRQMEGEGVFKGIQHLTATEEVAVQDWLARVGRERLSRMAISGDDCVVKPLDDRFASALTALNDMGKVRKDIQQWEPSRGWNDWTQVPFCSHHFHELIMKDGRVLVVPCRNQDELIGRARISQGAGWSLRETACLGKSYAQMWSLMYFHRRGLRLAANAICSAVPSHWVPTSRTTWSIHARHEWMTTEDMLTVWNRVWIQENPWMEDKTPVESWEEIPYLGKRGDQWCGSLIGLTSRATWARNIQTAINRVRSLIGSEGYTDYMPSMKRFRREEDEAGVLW", "experiment": "Inhibition of Dengue virus ribose 2'-O methyltransferase using RNA substrate after 20 mins in presence of [methyl-3H]-AdoMet by microbeta counting analysis"}, "dengue virus type 2 [14]": {"tested_on": "dengue virus type 2", "experiment": "Antiviral activity against Dengue virus 2 NGC infected in human K562 cells assessed as inhibition in live viral replication after 48 hrs by plaque assay", "type": "functional, organism-based", "conditions": "K562, 48 h"}}, "note": "Where a SMILES comes first, the peptide text is derived from it. [ ]: non-standard residue; d: D form. The star is where a group is joined. Nle = CCCC[C@H](N)C(=O)O; Bz = O=C(c1ccccc1)*"}
{"smiles": "Cc1nc(Nc2ncc(C(=O)Nc3c(C)cccc3Cl)s2)cc(N2CCN(CCO)CC2)n1", "note": "[DASATINIB]", "values": [{"measurement": "EC90", "setting": "dengue virus type 2 [1]", "result": 4.7, "unit": "µM"}]}
{"smiles": "OC[C@@H]1[C@@H](O)[C@H](O)[C@@H](O)CN1CCCCC1CCCCC1", "values": [{"measurement": "EC50", "setting": "dengue virus type 2 [2]", "result": 1.5, "unit": "µM"}]}
{"smiles": "C=CCn1c2ccccc2c(=O)c2ccc(Cl)cc21", "values": [{"measurement": "EC50", "setting": "dengue virus type 1", "result": "8.3 to 15.9", "unit": "µM"}, {"measurement": "EC50", "setting": "Junin virus", "result": "2.5 to 5.5", "unit": "µM"}, {"measurement": "EC50", "setting": "dengue virus type 2 [3]", "result": "2.5 to 5.5", "unit": "µM"}, {"measurement": "EC50", "setting": "dengue virus type 3 [4]", "result": "8.3 to 15.9", "unit": "µM"}]}
{"smiles": "CC[C@H](C)C(=O)O[C@H]1C[C@@H](C)C=C2C=C[C@H](C)[C@H](CC[C@@H]3C[C@@H](O)CC(=O)O3)[C@H]21", "note": "[LOVASTATIN]", "values": [{"measurement": "EC50", "setting": "dengue virus type 2 [5]", "result": "1.82 to 8.75", "unit": "µM"}]}
{"smiles": "CC(C)n1c(/C=C/C(O)CC(O)CC(=O)O)c(-c2ccc(F)cc2)c2ccccc21", "note": "(stereo not given) [FLUVASTATIN]", "values": [{"measurement": "EC50", "setting": "dengue virus type 2 [5]", "result": "1.82 to 8.75", "unit": "µM"}]}
{"smiles": "C=CCn1c2ccc(Cl)cc2c(=O)c2cccc(OC)c21", "values": [{"measurement": "EC50", "setting": "dengue virus type 4", "result": "13.5 to 27.1", "unit": "µM"}, {"measurement": "EC50", "setting": "dengue virus type 1", "result": "13.5 to 27.1", "unit": "µM"}, {"measurement": "EC50", "setting": "dengue virus type 2 [3]", "result": "13.5 to 27.1", "unit": "µM"}, {"measurement": "EC50", "setting": "dengue virus type 3 [4]", "result": "13.5 to 27.1", "unit": "µM"}]}
{"smiles": "C=C1C(=O)OC(CCCCCCCC)C1C(=O)O", "note": "(stereo not given)", "values": [{"measurement": "CC50 at 48 h", "setting": "[6]", "result": "> 100", "unit": "µM"}, {"measurement": "EC50", "setting": "dengue virus type 2 [7]", "result": 5.7, "unit": "µM"}]}
{"smiles": "CCCC[C@H](NC(=O)[C@H](CCCCN)NC(=O)[C@H](CCCNC(=N)N)NC(=O)c1ccc(/C=C(\\C#N)C(=O)NC2CC2)cc1)C(N)=O", "values": [{"measurement": "Ki", "setting": "Genome polyprotein", "result": 4.9, "unit": "µM"}]}
{"smiles": "CC(C)(C)OC(=O)NC1C(=O)NC2Cc3ccc(c(Cl)c3)Oc3cc4cc(c3O)Oc3ccc(cc3Cl)C(O)C3NC(=O)C(NC(=O)C4NC(=O)C(NC2=O)c2cc(O)cc(c2)Oc2cc1ccc2O)c1ccc(O)c(c1)-c1c(O)cc(O)cc1C(C(=O)NC12CC4CC(CC(C4)C1)C2)NC3=O", "note": "(stereo not given)", "values": [{"measurement": "EC50", "setting": "dengue virus type 2 [8]", "result": 6.9, "unit": "µM"}]}
{"smiles": "C[S+](CC[C@H](N)C(=O)[O-])C[C@H]1O[C@@H](n2cnc3c(N)ncnc32)[C@H](O)[C@@H]1O", "note": "(stereo not given in full) [ADEMETIONINE]", "values": [{"measurement": "Kd", "setting": "[9]", "result": 0.826, "unit": "µM"}]}
{"smiles": "CO[C@@H]1[C@H]2OC(C)(C)O[C@H]2O[C@@H]1C(=O)c1cnc2sc(C(=O)c3ccc(Br)cc3)cn12", "values": [{"measurement": "EC50", "setting": "Junin virus", "result": 12, "unit": "µM"}, {"measurement": "EC50", "setting": "dengue virus type 2 [3]", "result": 29.9, "unit": "µM"}]}
{"smiles": "N#C/C(=N\\Nc1cccc(Cl)c1)C(=O)c1ccco1", "values": [{"measurement": "CC50 at 1 h", "setting": "[10]", "result": "> 100", "unit": "µM"}, {"measurement": "IC90", "setting": "dengue virus type 2 [11]", "result": 16.9, "unit": "µM"}]}
{"smiles": "CCCC[C@H](NC(=O)[C@H](CCCCN)NC(=O)[C@H](CCCNC(=N)N)NC(=O)c1ccccc1)C(N)=O", "note": "(Bz-Arg-Lys-[Nle]-NH2)", "values": [{"measurement": "Ki", "setting": "Genome polyprotein", "result": 15.6, "unit": "µM"}]}
{"smiles": "CCC(C)(C)C(=O)O[C@H]1C[C@@H](C)C=C2C=C[C@H](C)[C@H](CC[C@@H]3C[C@@H](O)CC(=O)O3)[C@H]21", "note": "[SIMVASTATIN]", "values": [{"measurement": "EC50", "setting": "dengue virus type 2 [5]", "result": "1.82 to 8.75", "unit": "µM"}]}
{"smiles": "Nc1ncnc2c1ncn2[C@@H]1O[C@H](C[C@@H](N)CC[C@H](N)C(=O)O)[C@@H](O)[C@H]1O", "note": "[SINEFUNGIN]", "values": [{"measurement": "IC50", "setting": "[12]", "result": 0.03, "unit": "µM"}, {"measurement": "Kd", "setting": "[9]", "result": 0.136, "unit": "µM"}, {"measurement": "Ratio", "setting": "dengue virus type 3 [13]", "result": 6}, {"measurement": "IC50", "setting": "Nonstructural protein 5", "result": 0.041, "unit": "µM"}]}
{"smiles": "CC(=C\\C(=O)O)/C=C(\\C)C[C@H](C)CCCC[C@H]1OC(=O)[C@@H]1CO", "note": "[ANTIBIOTIC 1233A]", "values": [{"measurement": "EC50", "setting": "dengue virus type 2 [14]", "result": 4.5, "unit": "µM"}]}
{"smiles": "N#C/C(=N\\Nc1ccc(C(F)(F)F)cc1)C(=O)c1ccco1", "values": [{"measurement": "CC50 at 1 h", "setting": "[10]", "result": 84.5, "unit": "µM"}, {"measurement": "IC90", "setting": "dengue virus type 2 [11]", "result": 1.5, "unit": "µM"}]}
